From ChEMBL document CHEMBL1240361 (2010)

What was measured:
Type in all cases: functional
[1] = system: Staphylococcus aureus; test: (§1) Antibacterial activity against methicillin-resistant Staphylococcus aureus infected in New Zealand white rabbit osteomyelitis model assessed as change in bacterial load in joint fluid per gram of tissue administered via constant iv infusion on day 3 post infection measured on day 7 by HPLC analysis
[2] = system: Staphylococcus aureus; test: (§2) Antibacterial activity against methicillin-resistant Staphylococcus aureus infected in New Zealand white rabbit osteomyelitis model assessed as change in bacterial load in bone marrow per gram of tissue administered via constant iv infusion on day 3 post infection measured on day 7 by HPLC analysis
[3] = system: Staphylococcus aureus; test: (§3) Antibacterial activity against methicillin-resistant Staphylococcus aureus infected in New Zealand white rabbit osteomyelitis model assessed as change in bacterial load in bone per gram of tissue administered via constant iv infusion on day 3 post infection measured on day 7 by HPLC analysis
[4] = system: Staphylococcus aureus; test: as §1, with “infusion in presence of unloaded calcium-deficient apatites” for “infusion”
[5] = system: Staphylococcus aureus; test: as §2, with “infusion in presence of unloaded calcium-deficient apatites” for “infusion”
[6] = system: Staphylococcus aureus; test: as §3, with “infusion in presence of unloaded calcium-deficient apatites” for “infusion”
[7] = system: Staphylococcus aureus; test: as §1, with “tissue at 25 ug/mg” for “tissue”, “calcium-deficient apatite” for “constant iv infusion”
[8] = system: Staphylococcus aureus; test: as §2, with “tissue at 25 ug/mg” for “tissue”, “calcium-deficient apatite” for “constant iv infusion”
[9] = system: Staphylococcus aureus; test: as §3, with “tissue at 25 ug/mg” for “tissue”, “calcium-deficient apatite” for “constant iv infusion”
[10] = system: Staphylococcus aureus; test: as §1, with “tissue at 25 ug/mg” for “tissue”, “via calcium-deficient apatite followed by” for “via”
[11] = system: Staphylococcus aureus; test: as §2, with “tissue at 25 ug/mg” for “tissue”, “via calcium-deficient apatite followed by” for “via”
[12] = system: Staphylococcus aureus; test: as §3, with “tissue at 25 ug/mg” for “tissue”, “via calcium-deficient apatite followed by” for “via”
[13] = system: Staphylococcus aureus; test: as §1, with “tissue at 100 ug/mg” for “tissue”, “calcium-deficient apatite” for “constant iv infusion”
[14] = system: Staphylococcus aureus; test: as §2, with “tissue at 100 ug/mg” for “tissue”, “calcium-deficient apatite” for “constant iv infusion”
[15] = system: Staphylococcus aureus; test: as §3, with “tissue at 100 ug/mg” for “tissue”, “calcium-deficient apatite” for “constant iv infusion”
[16] = system: Staphylococcus aureus; test: as §1, with “tissue at 100 ug/mg” for “tissue”, “via calcium-deficient apatite followed by” for “via”
[17] = system: Staphylococcus aureus; test: as §2, with “tissue at 100 ug/mg” for “tissue”, “via calcium-deficient apatite followed by” for “via”
[18] = system: Staphylococcus aureus; test: as §3, with “tissue at 100 ug/mg” for “tissue”, “via calcium-deficient apatite followed by” for “via”
[19] = system: Staphylococcus aureus; test: as §1, with “tissue at 500 ug/mg” for “tissue”, “calcium-deficient apatite” for “constant iv infusion”
[20] = system: Staphylococcus aureus; test: as §2, with “tissue at 500 ug/mg” for “tissue”, “calcium-deficient apatite” for “constant iv infusion”
[21] = system: Staphylococcus aureus; test: as §3, with “tissue at 500 ug/mg” for “tissue”, “calcium-deficient apatite” for “constant iv infusion”
[22] = system: Staphylococcus aureus; test: as §1, with “tissue at 500 ug/mg” for “tissue”, “via calcium-deficient apatite followed by” for “via”
[23] = system: Staphylococcus aureus; test: as §2, with “tissue at 500 ug/mg” for “tissue”, “via calcium-deficient apatite followed by” for “via”

**Q.** What does the source list for CN[C@H](CC(C)C)C(=O)N[C@H]1C(=O)N[C@@H](CC(N)=O)C(=O)N[C@H]2C(=O)N[C@H]3C(=O)N[C@H](C(=O)N[C@H](C(=O)O)c4cc(O)cc(O)c4-c4cc3ccc4O)[C@H](O)c3ccc(c(Cl)c3)Oc3cc2cc(c3O[C@@H]2O[C@H](CO)[C@@H](O)[C@H](O)[C@H]2O[C@H]2C[C@](C)(N)[C@H](O)[C@H](C)O2)Oc2ccc(cc2Cl)[C@H]1O [VANCOMYCIN]?
**A.** log10cfu [1]: 0.03; log10cfu [2]: 0.73; log10cfu [3]: 0.61; log10cfu [4]: 0.3; log10cfu [5]: 0.75; log10cfu [6]: 0.35; log10cfu [7]: 0.56; log10cfu [8]: 1.89; log10cfu [9]: 1.97; log10cfu [10]: 0.68; log10cfu [11]: -3.14; log10cfu [12]: -2.4; log10cfu [13]: 0.05; log10cfu [14]: 3.41; log10cfu [15]: 2.35; log10cfu [16]: 0.9; log10cfu [17]: -4.03; log10cfu [18]: -4.63; log10cfu [19]: 0.29; log10cfu [20]: 4.08; log10cfu [21]: 3.57; log10cfu [22]: 1.69; log10cfu [23]: 4.21
